According to patent US5013722A, “Cholecystokinin analogs for controlling appetite” (Hoffmann-LaRoche Inc., priority 1989, dated 1991):
Where a SMILES comes first, the peptide text is derived from it. Where no end group is shown, it is not given here. [ ]: non-standard residue; d: D form. The star is where a group is joined. Thr(SO3H) = C[C@@H](OS(=O)(=O)O)[C@H](N)C(=O)O; sY = N[C@@H](Cc1ccc(OS(=O)(=O)O)cc1)C(=O)O; NMeF = CN[C@@H](Cc1ccccc1)C(=O)O; Nle = CCCC[C@H](N)C(=O)O; For = O=C*

Assays:
[1] = tested on: rat and monkey, satiety; details: cited from earlier work
[2] = tested on: lean and obese men, food intake; details: cited from earlier work
[3] = target: T1, Rat kidney metalloendopeptidase (Rattus norvegicus, UniProt P07861); assay: Degradation by rat kidney metalloendopeptidase (HPLC); assay type: in vitro ADME; details: for % Degradation by Height: 37° C., pH 7.6
T1 construct: from tissue; host or cells: rat kidney
T1 sequence (P07861 1-750): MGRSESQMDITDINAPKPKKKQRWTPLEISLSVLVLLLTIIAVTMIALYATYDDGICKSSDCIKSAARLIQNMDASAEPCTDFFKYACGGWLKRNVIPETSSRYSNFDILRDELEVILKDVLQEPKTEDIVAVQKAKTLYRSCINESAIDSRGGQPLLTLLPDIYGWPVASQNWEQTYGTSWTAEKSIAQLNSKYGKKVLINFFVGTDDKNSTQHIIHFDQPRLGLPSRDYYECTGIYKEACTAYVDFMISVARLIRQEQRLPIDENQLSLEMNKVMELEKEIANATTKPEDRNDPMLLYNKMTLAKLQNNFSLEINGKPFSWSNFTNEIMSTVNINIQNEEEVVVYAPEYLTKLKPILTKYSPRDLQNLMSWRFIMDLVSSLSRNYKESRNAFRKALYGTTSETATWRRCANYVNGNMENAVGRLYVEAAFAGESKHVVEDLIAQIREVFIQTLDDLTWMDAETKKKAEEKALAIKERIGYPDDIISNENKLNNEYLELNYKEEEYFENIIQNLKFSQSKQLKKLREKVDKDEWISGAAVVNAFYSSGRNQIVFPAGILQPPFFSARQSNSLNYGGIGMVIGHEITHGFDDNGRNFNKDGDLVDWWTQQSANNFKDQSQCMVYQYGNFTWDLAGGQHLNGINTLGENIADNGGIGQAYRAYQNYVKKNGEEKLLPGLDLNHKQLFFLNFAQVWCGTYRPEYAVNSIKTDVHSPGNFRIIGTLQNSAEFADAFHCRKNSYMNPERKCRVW
Procedure: Rat kidney metalloendopeptidase (0.01 μg) and 5 nmol of peptide were incubated in 2 μmol tris-HCl buffer (pH 7.6) and at 37° C. for varying periods of time. The degradation of the peptide was monitored by analytical HPLC on a 5 micron Adsorbosphere-ODS column with a 0-50% CH3 CN gradient in 0.1N potassium phosphate, pH 3.0, with UV detection at 210 nm. Rates are based on presumed production of Asp-Tyr(SO3 H)-Met-Gly for CCK-8 and the presumed production of Ac-Tyr(SO3 H)-Met-Gly for Example 2 and 3.

[4] = tested on: Male Sprague-Dawley (CD) rats, food intake; assay: Two-meal feeding assay, intraperitoneal administration; assay type: in vivo, rat; details: 32 microgm/Kg i.p., mean ± SEM; for Food Intake 1st Meal: 15 min before first meal
Procedure: (§1) Male Sprague-Dawley (CD) rats weighing 180-200 grams (Charles River Breeding Laboratories) were acclimated to a 12 h light/dark cycle (6 a.m. to 6 p.m.) in a room kept at 22° C. They were subsequently fasted for two days, weighed, placed in individual cages, and a four-day period of meal training was begun. During this time the rats were given ground laboratory chow (Purina Lab Chow) in jars for one hour from 9:00 a.m. until 10:00 a.m., the jars were removed from 10:00 a.m. to 12:00 p.m., and placed back in the cages from 12:00 until 1:00 p.m. Under this `1-2-1` meal feeding regime most rats learn to eat approximately as much Per day during the two hours they have access to food as rats which have food ad libitum over the entire 24-hour day. On the fourth day, the rats were weighed again, and any which lost more than five grams body weight were excluded from the test. The animals were then distributed into experimental (n=5 to 6) and control groups (n=6-12). but not matched for body weight.
Peptides of the invention were suspended either in saline. if soluble, or in 1% gum arabic, if insoluble, at concentrations of 0 to 320 μg/ml/kg body weight and were administered intraperitonerally 15 min before the first meal on day 5 of meal feeding. The rats were then given their meals as they had been during the previous four days, and the food cups were weighed both before and after each meal to determine food consumption. Food intake was expressed as a mean and standard error of the mean in grams consumed or as a percent of control values for the various groups. The treated groups were compared to the control groups by t-test analysis. […]

[5] = tested on: Male rats, food intake; assay: Two-meal feeding assay, intranasal administration; assay type: in vivo, rat
Procedure: as §1
Male rats were meal trained as described in Example 9. The peptide of Example 2 was dissolved in saline and was administered to the rats intranasally. CCK-8, dissolved in saline was used as a control.

[6] = target: T2, receptors in rat pancreas (3H-CCK-8-(SO3 H) binding) (Rattus norvegicus, UniProt P30551); assay: In vitro receptor binding assay, rat pancreas homogenate, 3H-CCK-8-(SO3H) radioligand
T2 construct: receptors in homogenized preparations of rat pancreatic cells and bovine striata; from tissue; host or cells: rat pancreas homogenate (48,000 x g pellet)
T2 sequence (P30551 1-444): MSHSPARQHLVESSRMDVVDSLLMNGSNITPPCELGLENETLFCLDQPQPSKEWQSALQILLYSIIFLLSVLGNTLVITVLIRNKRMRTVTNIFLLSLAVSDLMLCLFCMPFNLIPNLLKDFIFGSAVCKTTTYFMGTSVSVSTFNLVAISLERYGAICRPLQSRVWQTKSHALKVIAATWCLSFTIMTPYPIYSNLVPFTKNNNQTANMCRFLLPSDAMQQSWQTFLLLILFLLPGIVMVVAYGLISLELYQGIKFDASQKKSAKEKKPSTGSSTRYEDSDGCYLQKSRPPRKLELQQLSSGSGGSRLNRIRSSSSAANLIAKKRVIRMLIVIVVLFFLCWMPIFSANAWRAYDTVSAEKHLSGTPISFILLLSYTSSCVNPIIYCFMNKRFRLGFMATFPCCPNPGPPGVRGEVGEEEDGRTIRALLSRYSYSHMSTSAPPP
Procedure: This strategy was utilized to minimize central nervous system side effects by identifying peptides with peripheral receptor selectivity. […] The tissue was homogenized 2 x for approx. 15 sec. at 0° C. using a Polytron homogenizer at a setting of 6. The tissue was isolated by centrifugation at 48,000 x g for 10 min. at 0° C. […] Samples were incubated for 30 min. at 25° C. and the incubation terminated by pouring the mixture onto a pre-wet Whatman GF/B filter on a Sandbeck Vacuum Filtration Manifold. The incubation tubes were washed with 2×3 ml of ice-cold HEPES Buffer #2 and the wash filtered through the GF/B filter. The filter was air dried for 10 min. and then placed in a scintillation vial with 12 ml of Beckman HP/b Ready-Solv scintillation cocktail. The vials were shaken for 2 hours and then counted using a Beckman Model 7800 liquid scintillation spectrometer.

[7] = target: T3, receptors in bovine striatum (3H-CCK-8-(SO3 H) binding, central receptor) (Bos taurus, UniProt P79266); assay: In vitro receptor binding assay, bovine striatum homogenate, 3H-CCK-8-(SO3H) radioligand; details: 0.15 nM radioligand, 30 min, 25° C.; read-out: Bovine Striatum IC50 (inhibition of specific 3H-CCK-8-(SO3H) binding)
T3 construct: receptors in homogenized preparations of rat pancreatic cells and bovine striata; from tissue; host or cells: bovine striatum homogenate (48,000 x g pellet)
T3 sequence (P79266 1-454): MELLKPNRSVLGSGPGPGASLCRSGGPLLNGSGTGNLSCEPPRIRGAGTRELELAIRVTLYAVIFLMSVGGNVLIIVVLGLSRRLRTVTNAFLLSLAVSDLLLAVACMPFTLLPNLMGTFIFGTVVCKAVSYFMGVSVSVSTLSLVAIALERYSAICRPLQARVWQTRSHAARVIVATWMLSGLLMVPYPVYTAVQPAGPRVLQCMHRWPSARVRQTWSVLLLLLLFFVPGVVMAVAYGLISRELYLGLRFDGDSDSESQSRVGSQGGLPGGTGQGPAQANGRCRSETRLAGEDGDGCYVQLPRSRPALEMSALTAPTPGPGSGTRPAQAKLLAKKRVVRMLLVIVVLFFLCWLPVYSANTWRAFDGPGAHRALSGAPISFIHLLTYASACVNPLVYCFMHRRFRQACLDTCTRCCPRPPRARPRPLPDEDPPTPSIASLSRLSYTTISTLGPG
Procedure: Frozen bovine striatum (approx. 5 g) and fresh rat pancreas (approx. 5 g) cleaned of fat and extraneous tissue were homogenized in HEPES buffer #1 (10 mM HEPES+130 mM NaCl+5 mM MgCl2. pH 7.4) using 35 parts buffer per 1 part tissue on a wet weight/volume basis (approx. 175 ml). The tissue was homogenized 2 x for approx. 15 sec. at 0° C. using a Polytron homogenizer at a setting of 6. The tissue was isolated by centrifugation at 48,000 x g for 10 min. at 0° C. The resulting tissue pellet was resuspended in HEPES buffer #2 (10 mM HEPES+130 mM NaCl+5 mM MgCl2 +1 mg/L phenylmethanesulfonyl fluoride (PMSF)+200 mg/L Bacitracin): 1 part striatal tissue (original wet weight) per 80 parts buffer and 1 part pancreas tissue (original wet weight) per 70 parts buffer.
Incubation was initiated by combining various concentrations of native CCK-8 or peptides of formula I, II and III with ^3 H-CCK-8-(SO3 H) (final conc.=0.15 nM) and tissue homogenate (striatum 0.26 mg protein in 2 ml final volume; pancreas 0.165 mg protein in 1 ml final volume). Samples were incubated for 30 min. at 25° C. and the incubation terminated by pouring the mixture onto a pre-wet Whatman GF/B filter on a Sandbeck Vacuum Filtration Manifold. The incubation tubes were washed with 2×3 ml of ice-cold HEPES Buffer #2 and the wash filtered through the GF/B filter. The filter was air dried for 10 min. and then placed in a scintillation vial with 12 ml of Beckman HP/b Ready-Solv scintillation cocktail. The vials were shaken for 2 hours and then counted using a Beckman Model 7800 liquid scintillation spectrometer. Non-specific binding was determined in the presence of 1 micromole native CCK-8 and subtracted from all samples to determine specific binding. The concentration of ^3 peptide necessary to inhibit 50% of total specific H-CCK-8-(SO3 H) binding (IC50 value) was determined by log-probit analysis.

[8] = 1000 μg/kg intranasal, saline = 100

| % Degradation by Height ([3]; incubation 0 min) [%] | % Degradation by Height ([3]; incubation 15 min) [%] | % Degradation by Height ([3]; incubation 30 min) [%] | No. of Peaks (degradation products) ([3]; incubation 60 min) | % Degradation by Height ([3]; incubation 60 min) [%] | % Degradation by Height ([3]; incubation 120 min) [%] | No. of Peaks (degradation products) ([3]; incubation 240 min) | % Degradation by Height ([3]; incubation 240 min) [%] | IC50 [7] [nM] | IC50 ([6]; 0.15 nM radioligand, 30 min, 25° C., read-out: Rat Pancreas IC50 (inhibition of specific 3H-CCK-8-(SO3H) binding)) [nM] | Compound | Satiety after peripheral administration [1] | Food intake after infusion [2] | Food Intake 1st Meal [4] | Food Intake 2nd Meal [4] | Food Intake (activity in words) ([5]; 400 μg/kg intranasal) | Food Intake 1st meal Grams consumed ([5]; 1000 μg/kg intranasal) [Grams] | Food Intake 2nd meal Grams consumed ([5]; 1000 μg/kg intranasal) [Grams] | Food Intake 1st meal (%) [5, 8] [%] | Food Intake 2nd meal (%) [5, 8] [%] | Binding selectivity, receptor sites in pancreas versus brain ([6]; rat pancreas vs bovine striatum) |
| --- | --- | --- | --- | --- | --- | --- | --- | --- | --- | --- | --- | --- | --- | --- | --- | --- | --- | --- | --- | --- |
|  |  |  |  |  |  |  |  |  |  | Cholecystokinin (KAPSGRVSMIKNLQSLDPSHRISDRDYMGWMDF; ends and bridges not checked; UniProt P01356 70-102, looked up) [CCK, polypeptide hormone first isolated as a 33-amino acid peptide from the porcine gastrointestinal tract] | produce satiety in the rat and the monkey |  |  |  |  |  |  |  |  |  |
| 0 | 6.2 | 33.2 | 4 | 69.7 |  |  |  |  |  | CSCC[C@H](NC(=O)[C@H](Cc1ccc(OS(=O)(=O)O)cc1)NC(=O)[C@@H](N)CC(=O)O)C(=O)NCC(=O)N[C@@H](Cc1c[nH]c2ccccc12)C(=O)N[C@@H](CCSC)C(=O)N[C@@H](CC(=O)O)C(=O)N[C@@H](Cc1ccccc1)C(N)=O [CCK-8, Asp--Tyr(SO3 H)--Met--Gly--Trp--Met--Asp--Phe--NH2, reference compound] |  | decrease food intake in lean and obese men | 27 ± 17 % of Control | 149 ± 6 % of Control | Inactive | 4.9 ± 0.7 | 6.3 ± 05 | 66 | 112 | binds to receptor sites in the pancreas and brain |
| 0 |  |  |  | 0 | 0 | 0 | 0 | 100 | 100 | CCCC[C@H](NC(=O)[C@H](Cc1ccc(OS(=O)(=O)O)cc1)NC(C)=O)C(=O)N[C@H](C)C(=O)N[C@@H](Cc1cn(C=O)c2ccccc12)C(=O)N[C@@H](CCSC)C(=O)N[C@H](C(=O)N(C)[C@@H](Cc1ccccc1)C(N)=O)[C@@H](C)OS(=O)(=O)O [Example 3, Ac-Tyr-(SO3 H)-Nle-(D)Ala-Trp(For)-Met-Thr(SO3 H)-N-methyl-Phe-NH2] (Ac-[sY][Nle][dA]W(For)M[Thr(SO3H)][NMeF]-NH2) |  |  | 34 ± 6 % of Control | 164 ± 16 % of Control |  |  |  |  |  |  |
